Assay results taken from ChEMBL document CHEMBL5390283, “Discovery of PVD-06 as a Subtype-Selective and Efficient PTPN2 Degrader” (J Med Chem, 2023).
Active and inactive are the calls of the source. No cut-off for these calls is given here.

Experiments:
[1] = biological target: T1, von Hippel-Lindau disease tumor suppressor/Tyrosine-protein phosphatase non-receptor type 2 (Homo sapiens, UniProt P17706+P40337); test: PROTAC activity at VHL/PTPN2 in human Jurkat cells assessed as induction of PTPN2 degradation at 100 nM by Western blot analysis relative to control; assay type: cell-based
Target sequence in this assay (P17706 whole entry, looked up): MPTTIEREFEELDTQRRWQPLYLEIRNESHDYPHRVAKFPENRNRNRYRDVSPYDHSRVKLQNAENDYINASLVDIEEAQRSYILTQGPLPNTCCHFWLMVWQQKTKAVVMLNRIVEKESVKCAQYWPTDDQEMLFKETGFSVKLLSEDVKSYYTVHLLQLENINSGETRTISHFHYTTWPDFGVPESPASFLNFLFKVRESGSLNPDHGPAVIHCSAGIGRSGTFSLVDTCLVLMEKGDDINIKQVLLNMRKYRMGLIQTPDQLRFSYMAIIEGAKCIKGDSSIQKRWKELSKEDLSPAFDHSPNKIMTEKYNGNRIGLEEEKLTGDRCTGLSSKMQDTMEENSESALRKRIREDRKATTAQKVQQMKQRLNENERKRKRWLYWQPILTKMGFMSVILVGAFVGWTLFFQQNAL
Target sequence in this assay (P40337 whole entry, looked up): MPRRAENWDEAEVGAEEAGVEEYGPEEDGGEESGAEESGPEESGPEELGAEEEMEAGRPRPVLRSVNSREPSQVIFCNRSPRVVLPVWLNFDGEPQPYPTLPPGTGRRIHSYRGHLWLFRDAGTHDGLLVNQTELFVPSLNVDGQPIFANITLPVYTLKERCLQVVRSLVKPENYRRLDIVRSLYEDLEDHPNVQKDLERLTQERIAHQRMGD

[2] = biological target: T1, von Hippel-Lindau disease tumor suppressor/Tyrosine-protein phosphatase non-receptor type 2; test: PROTAC activity at VHL/PTPN2 in human Jurkat cells assessed as induction of PTPN2 degradation at 1 uM by Western blot analysis relative to control; assay type: cell-based
Target sequence in this assay (P17706 whole entry, looked up): as the sequence (P17706 whole entry, looked up) above
Target sequence in this assay (P40337 whole entry, looked up): as the sequence (P40337 whole entry, looked up) above

[3] = biological target: T1, von Hippel-Lindau disease tumor suppressor/Tyrosine-protein phosphatase non-receptor type 2; test: PROTAC activity at VHL/PTPN2 in human Jurkat cells assessed as induction of PTPN2 degradation at 10 uM by Western blot analysis relative to control; assay type: cell-based
Target sequence in this assay (P17706 whole entry, looked up): as the sequence (P17706 whole entry, looked up) above
Target sequence in this assay (P40337 whole entry, looked up): as the sequence (P40337 whole entry, looked up) above

[4] = biological target: T1, von Hippel-Lindau disease tumor suppressor/Tyrosine-protein phosphatase non-receptor type 2; test: PROTAC activity at VHL/PTPN2 in human Jurkat cells assessed as induction of PTPN2 degradation by Western blot analysis; assay type: cell-based
Target sequence in this assay (P17706 whole entry): as the sequence (P17706 whole entry, looked up) above
Target sequence in this assay (P40337 whole entry): as the sequence (P40337 whole entry, looked up) above

[5] = biological target: von Hippel-Lindau disease tumor suppressor/Tyrosine-protein phosphatase non-receptor type 1 (Homo sapiens, UniProt P18031+P40337); test: PROTAC activity at VHL/PTP1B in human Jurkat cells assessed as induction of PTP1B degradation by Western blot analysis; assay type: cell-based
von Hippel-Lindau disease tumor suppressor/Tyrosine-protein phosphatase non-receptor type 1, sequence (P18031 whole entry): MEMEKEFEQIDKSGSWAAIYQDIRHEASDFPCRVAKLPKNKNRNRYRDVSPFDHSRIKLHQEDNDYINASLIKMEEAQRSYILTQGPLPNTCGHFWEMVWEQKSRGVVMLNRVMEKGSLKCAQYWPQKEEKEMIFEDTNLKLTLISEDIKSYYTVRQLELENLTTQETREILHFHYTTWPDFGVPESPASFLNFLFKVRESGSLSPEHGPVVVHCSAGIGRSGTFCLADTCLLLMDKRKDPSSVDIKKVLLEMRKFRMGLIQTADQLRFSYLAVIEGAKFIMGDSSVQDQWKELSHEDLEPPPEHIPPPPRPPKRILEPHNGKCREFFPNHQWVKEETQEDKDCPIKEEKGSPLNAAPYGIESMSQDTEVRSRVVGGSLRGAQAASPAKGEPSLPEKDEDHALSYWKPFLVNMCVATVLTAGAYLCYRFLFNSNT
von Hippel-Lindau disease tumor suppressor/Tyrosine-protein phosphatase non-receptor type 1, sequence (P40337 whole entry): as the sequence (P40337 whole entry, looked up) above

Splenocyte = test: Induction of cell proliferation in anti-CD3/CD28-stimulated mouse splenocytes at 0.625 to 10 uM incubated for 3 days by CFSE dye based flow cytometry; assay type: functional; settings: dose 0.625-10 µM, time 3.0 day
[6] = biological target: T1, von Hippel-Lindau disease tumor suppressor/Tyrosine-protein phosphatase non-receptor type 2; test: PROTAC activity at VHL/PTPN2 in human Jurkat cells assessed as residual activity of PTPN2 level at 1 uM by Western blot analysis relative to control; assay type: cell-based
Target sequence in this assay (P17706 whole entry, looked up): as the sequence (P17706 whole entry, looked up) above
Target sequence in this assay (P40337 whole entry, looked up): as the sequence (P40337 whole entry, looked up) above

[7] = biological target: Protein cereblon/Tyrosine-protein phosphatase non-receptor type 2 (Homo sapiens) (UniProt P17706+Q96SW2); test: PROTAC activity at CRBN/PTPN2 in human Jurkat cells assessed as induction of PTPN2 degradation at 0.01 to 10 uM by Western blot analysis; assay type: cell-based; settings: dose 0.01-10 µM
Protein cereblon/Tyrosine-protein phosphatase non-receptor type 2 (Homo sapiens), sequence (P17706 whole entry, looked up): as the sequence (P17706 whole entry, looked up) above
Protein cereblon/Tyrosine-protein phosphatase non-receptor type 2 (Homo sapiens), sequence (Q96SW2 whole entry, looked up): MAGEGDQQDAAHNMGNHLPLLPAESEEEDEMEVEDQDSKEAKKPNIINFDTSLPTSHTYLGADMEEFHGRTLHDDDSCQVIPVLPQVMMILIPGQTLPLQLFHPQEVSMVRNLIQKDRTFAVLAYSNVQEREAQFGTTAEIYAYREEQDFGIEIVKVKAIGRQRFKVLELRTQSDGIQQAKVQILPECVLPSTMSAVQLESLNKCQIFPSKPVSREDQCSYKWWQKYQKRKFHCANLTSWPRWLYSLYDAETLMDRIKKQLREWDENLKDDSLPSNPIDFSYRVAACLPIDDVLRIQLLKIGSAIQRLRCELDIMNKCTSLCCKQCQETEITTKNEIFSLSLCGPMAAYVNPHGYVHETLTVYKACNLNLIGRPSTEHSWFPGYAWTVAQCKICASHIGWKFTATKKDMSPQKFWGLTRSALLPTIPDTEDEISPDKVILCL

Row | SMILES | Activity [1] | Activity [2] | Activity [3] | EC50 [4] | EC50 [5] | Activity (Splenocyte) | Activity [6] | Activity [7]
1 | Cc1ncsc1-c1ccc([C@H](C)NC(=O)[C@@H]2C[C@@H](O)CN2C(=O)[C@@H](NC(=O)CCCCCCNC(=O)Cn2cc(-c3ccc4cc(O)c(N5CC(=O)NS5(=O)=O)c(F)c4c3)cn2)C(C)(C)C)cc1 | 40% | 84% | 99% | 94 nM | 142 nM |  |  | 
2 | Cc1ncsc1-c1ccc([C@H](C)NC(=O)[C@@H]2C[C@@H](Oc3ccccc3)CN2C(=O)[C@@H](NC(=O)CCCCCNC(=O)Cn2cc(-c3ccc4cc(O)c(N5CC(=O)NS5(=O)=O)c(F)c4c3)cn2)C(C)(C)C)cc1 |  |  |  |  |  | inactive |  | 
3 | Cc1ncsc1-c1ccc([C@H](C)NC(=O)[C@@H]2C[C@@H](O)CN2C(=O)[C@@H](NC(=O)CNC2CCN(C(=O)Cn3cc(-c4ccc5cc(O)c(N6CC(=O)NS6(=O)=O)c(F)c5c4)cn3)CC2)C(C)(C)C)cc1 | -17% | 72% | 99% |  |  |  | 20% | 
4 | Cc1ncsc1-c1ccc([C@H](C)NC(=O)[C@@H]2C[C@@H](O)CN2C(=O)[C@@H](NC(=O)CCCCCCCNC(=O)Cn2cc(-c3ccc4cc(O)c(N5CC(=O)NS5(=O)=O)c(F)c4c3)cn2)C(C)(C)C)cc1 | 37% | 84% | 99% | 77 nM | 758 nM |  |  | 
5 | O=C(Cn1cc(-c2ccc3cc(O)c(N4CC(=O)NS4(=O)=O)c(F)c3c2)cn1)NCCCCCNc1cccc2c1C(=O)N(C1CCC(=O)NC1=O)C2=O (centres undefined) |  |  |  |  |  |  |  | Active
6 | Cc1ncsc1-c1ccc([C@H](C)NC(=O)[C@@H]2C[C@@H](O)CN2C(=O)[C@@H](NC(=O)CCCCCCCCNC(=O)Cn2cc(-c3ccc4cc(O)c(N5CC(=O)NS5(=O)=O)c(F)c4c3)cn2)C(C)(C)C)cc1 | 27% | 60% | 94% |  |  |  |  | 
7 | Cc1ncsc1-c1ccc([C@H](C)NC(=O)[C@@H]2C[C@@H](O)CN2C(=O)[C@@H](NC(=O)c2cn(CCCNC(=O)Cn3cc(-c4ccc5cc(O)c(N6CC(=O)NS6(=O)=O)c(F)c5c4)cn3)nn2)C(C)(C)C)cc1 | -2% | 2% | 62% |  |  |  |  | 
8 | Cc1ncsc1-c1ccc([C@H](C)NC(=O)[C@@H]2C[C@@H](O)CN2C(=O)[C@@H](NC(=O)CCCCNC(=O)Cn2cc(-c3ccc4cc(O)c(N5CC(=O)NS5(=O)=O)c(F)c4c3)cn2)C(C)(C)C)cc1 | 29% | 77% | 92% |  |  |  |  | 
9 | Cc1ncsc1-c1ccc([C@H](C)NC(=O)[C@@H]2C[C@@H](O)CN2C(=O)[C@@H](NC(=O)CNC(=O)Cn2cc(-c3ccc4cc(O)c(N5CC(=O)NS5(=O)=O)c(F)c4c3)cn2)C(C)(C)C)cc1 | -18% | 33% | 91% |  |  |  |  | 
10 | O=C(Cn1cc(-c2ccc3cc(O)c(N4CC(=O)NS4(=O)=O)c(F)c3c2)cn1)NCCCNc1cccc2c1C(=O)N(C1CCC(=O)NC1=O)C2=O (centres undefined) |  |  |  |  |  |  |  | Active
